{"source": "paper PMC4058769", "about": "(Organic & biomolecular chemistry, 2009)", "type_in_all_cases": "cell-based", "key": {"[1]": {"test_system": "HeLa (human cervix carcinoma)", "test": "cytotoxicity assay, HeLa"}, "K-562 (human leukaemia)": {"test_system": "K-562 (human leukaemia)", "test": "antiproliferative assay, K-562"}, "[2]": {"test_system": "PC-3 cells (prostate cancer)", "test": "in vitro cytotoxic assay, PC-3"}, "[3]": {"test_system": "MCF-7 cells (breast cancer)", "test": "in vitro cytotoxic assay, MCF-7"}, "[4]": {"test_system": "L-929 (mouse fibroblasts)", "test": "antiproliferative assay, L-929"}}}
{"molecule": "CCC(=O)O[C@H]1[C@H](C)O[C@@H](O[C@H]2[C@H](N(C)C)[C@@H](O)[C@H](O[C@H]3[C@@H](CC=O)C[C@@H](C)[C@@H](O)/C=C/C=C/C[C@@H](C)OC(=O)C[C@@H](O)[C@@H]3OC)O[C@@H]2C)C[C@@]1(C)O", "note": "[compound 1, leucomycin A7]", "values": [{"measurement": "cytotoxic activity in HeLa (in words)", "setting": "[1]", "value": "not active at all"}, {"measurement": "CC50", "setting": "[1]; read-out: HeLa CC50, cytotoxicity, HeLa human cervix carcinoma", "value": "> 66", "unit": "µM"}, {"measurement": "antiproliferative activity in K-562 (in words)", "setting": "K-562 (human leukaemia)", "value": "not active at all"}, {"measurement": "GI50", "setting": "K-562 (human leukaemia); read-out: K-562 GI50, antiproliferative activity, K-562 human leukaemia", "value": "> 66", "unit": "µM"}, {"measurement": "cytotoxic activity in PC-3 (in words)", "setting": "[2]", "value": "not active at all"}, {"measurement": "cytotoxic activity in MCF-7 (in words)", "setting": "[3]", "value": "not active at all"}, {"measurement": "antiproliferative activity in L-929 (in words)", "setting": "[4]", "value": "not active at all"}, {"measurement": "GI50", "setting": "[4]; read-out: L-929 GI50, antiproliferative activity, L-929 mouse fibroblasts", "value": "> 66", "unit": "µM"}]}
